Molecular target: T1, Cytochrome P450 11B1, mitochondrial (Homo sapiens, UniProt P15538)
T1 sequence (P15538 whole entry): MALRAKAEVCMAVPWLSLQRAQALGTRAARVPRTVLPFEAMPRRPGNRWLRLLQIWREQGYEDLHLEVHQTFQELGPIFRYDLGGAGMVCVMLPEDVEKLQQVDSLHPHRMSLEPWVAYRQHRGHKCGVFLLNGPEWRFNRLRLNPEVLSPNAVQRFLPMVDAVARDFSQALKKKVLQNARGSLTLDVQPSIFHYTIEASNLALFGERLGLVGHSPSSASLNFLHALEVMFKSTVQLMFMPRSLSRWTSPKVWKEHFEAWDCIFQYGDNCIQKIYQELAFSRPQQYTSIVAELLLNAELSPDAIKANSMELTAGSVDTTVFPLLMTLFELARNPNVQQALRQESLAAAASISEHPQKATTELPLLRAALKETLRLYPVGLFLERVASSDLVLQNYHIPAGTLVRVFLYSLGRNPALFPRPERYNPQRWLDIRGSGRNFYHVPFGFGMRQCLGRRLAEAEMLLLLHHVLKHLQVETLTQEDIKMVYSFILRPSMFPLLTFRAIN
Assay: CYP11B1 Inhibition Assay
Method: The enzyme activity was assayed by monitoring the conversion of deoxycorticosterone to corticosterone in the presence of inhibitor compounds. The product formation was monitored by HPTLC using a phosphoimager system.

C[C@]12CC[C@H](O)CC1=CC[C@@H]1[C@@H]2CC[C@]2(C)C(c3cccnc3)=CC[C@@H]12 [ABT]
IC50: 1610 nM
